Measurements from ChEMBL document CHEMBL1201862, “PubChem BioAssay data set” (2004).
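Assay format: 96-well plates, 48-hour exposure. GI50: concentration for 50% inhibition of growth.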 Activity calls are given as the source filed them. Rule as the data show it: active = GI50 up to about 1.1 µM and inactive = higher.

Key:
Experiment in all cases: growth of human tumour cells (NCI), 48 h
SF-539 = test system: SF-539
ACHN = test system: ACHN
CAKI-1 = test system: CAKI-1
LXFL 529 = test system: LXFL 529
UO-31 = test system: UO-31
KM-20L2 = test system: KM-20L2
DMS-114 = test system: DMS-114
786-0 = test system: 786-0
K562 = test system: K562
UACC-62 = test system: UACC-62
SR = test system: SR
M19-MEL = test system: M19-MEL
COLO 205 = test system: COLO 205
TK-10 = test system: TK-10
KM12 = test system: KM12
U-251 = test system: U-251
SK-MEL-2 = test system: SK-MEL-2
HCT-116 = test system: HCT-116
SK-MEL-28 = test system: SK-MEL-28
A498 = test system: A498
SNB-19 = test system: SNB-19
IGROV-1 = test system: IGROV-1
SNB-78 = test system: SNB-78
MOLT-4 = test system: MOLT-4
HOP-92 = test system: HOP-92
HL-60 = test system: HL-60
SK-OV-3 = test system: SK-OV-3
LOX IMVI = test system: LOX IMVI
OVCAR-8 = test system: OVCAR-8
HOP-62 = test system: HOP-62
HT-29 = test system: HT-29
HOP-18 = test system: HOP-18
HCC 2998 = test system: HCC 2998
NCI-H23 = test system: NCI-H23
SF-295 = test system: SF-295
NCI-H460 = test system: NCI-H460
UACC-257 = test system: UACC-257
SW-620 = test system: SW-620
A549 = test system: A549
OVCAR-5 = test system: OVCAR-5
CCRF-CEM = test system: CCRF-CEM
RXF 631 = test system: RXF 631
OVCAR-3 = test system: OVCAR-3
Malme-3M = test system: Malme-3M
HCT-15 = test system: HCT-15
SF-268 = test system: SF-268
SN12C = test system: SN12C
M14 = test system: M14
NCI-H522 = test system: NCI-H522
DMS-273 = test system: DMS-273
SNB-75 = test system: SNB-75
RXF 393 = test system: RXF 393
EKVX = test system: EKVX
XF498 = test system: XF498
SK-MEL-5 = test system: SK-MEL-5
DLD-1 = test system: DLD-1
NCI-H226 = test system: NCI-H226
OVCAR-4 = test system: OVCAR-4
RPMI-8226 = test system: RPMI-8226

With `Cc1nc(C(N)=O)c(N)n1CCN1CCN(C(=O)CCCCCCCCCCNC2NC=Nc3[nH]cnc32)CC1` (stereo unspecified) the GI50 (SF-539) was > 100 µM (inactive), the GI50 (ACHN) was 29.4 µM (inactive) and the GI50 (CAKI-1) was > 10 µM (inactive). The GI50 (LXFL 529) was 11.2 µM (inactive), the GI50 (UO-31) was > 100 µM (inactive) and the GI50 (KM-20L2) was > 100 µM (inactive). The GI50 (DMS-114) was 6.04 µM (inactive), the GI50 (786-0) was > 100 µM (inactive) and the GI50 (K562) was 13.2 µM (inactive). The GI50 (UACC-62) was 29.8 µM (inactive), the GI50 (SR) was 13.6 µM (inactive) and the GI50 (M19-MEL) was 34.4 µM (inactive). For the same compound, the GI50 (COLO 205) was 73.5 µM (inactive), the GI50 (TK-10) was 90.2 µM (inactive) and the GI50 (KM12) was 41 µM (inactive). The GI50 (U-251) was > 100 µM (inactive), the GI50 (SK-MEL-2) was 14.3 µM (inactive) and the GI50 (HCT-116) was 43.4 µM (inactive). The GI50 (SK-MEL-28) was 22 µM (inactive), the GI50 (A498) was > 100 µM (inactive) and the GI50 (SNB-19) was > 100 µM (inactive). For the same compound, the GI50 (IGROV-1) was 52.6 µM (inactive), the GI50 (SNB-78) was 39.5 µM (inactive) and the GI50 (MOLT-4) was 11.6 µM (inactive). The GI50 (HOP-92) was 16.3 µM (inactive), the GI50 (HL-60) was 15.2 µM (inactive) and the GI50 (SK-OV-3) was > 100 µM (inactive). The GI50 (LOX IMVI) was 33.1 µM (inactive), the GI50 (OVCAR-8) was 33.9 µM (inactive) and the GI50 (HOP-62) was 91.6 µM (inactive). The GI50 (HT-29) was > 100 µM (inactive), the GI50 (HOP-18) was > 100 µM (inactive) and the GI50 (HCC 2998) was > 100 µM (inactive). For the same compound, the GI50 (NCI-H23) was 10.1 µM (inactive), the GI50 (SF-295) was 41.1 µM (inactive) and the GI50 (NCI-H460) was 32.7 µM (inactive). The GI50 (UACC-257) was 16.3 µM (inactive), the GI50 (SW-620) was > 100 µM (inactive) and the GI50 (A549) was 51.2 µM (inactive). For the same compound, the GI50 (OVCAR-5) was > 100 µM (inactive), the GI50 (CCRF-CEM) was 13.8 µM (inactive) and the GI50 (RXF 631) was > 100 µM (inactive). For the same compound, the GI50 (OVCAR-3) was 45.9 µM (inactive), the GI50 (Malme-3M) was 31.2 µM (inactive) and the GI50 (HCT-15) was greater than 100 µM. For the same compound, the GI50 (SF-268) was 41.7 µM (inactive), the GI50 (SN12C) was 80.7 µM (inactive) and the GI50 (M14) was 25.7 µM (inactive). The GI50 (NCI-H522) was > 10 µM (inactive).
`COC(=O)CCC(=O)CC1CC(=O)C2CCCN12` (stereo unspecified) was tested, and the GI50 (SF-539) was > 100 µM (inactive), the GI50 (DMS-273) was > 100 µM (inactive) and the GI50 (ACHN) was > 100 µM (inactive). For the same compound, the GI50 (CAKI-1) was > 100 µM (inactive), the GI50 (LXFL 529) was > 100 µM (inactive) and the GI50 (SNB-75) was > 100 µM (inactive). For the same compound, the GI50 (UO-31) was > 100 µM (inactive), the GI50 (KM-20L2) was > 100 µM (inactive) and the GI50 (DMS-114) was > 100 µM (inactive). The GI50 (786-0) was > 100 µM (inactive), the GI50 (K562) was > 100 µM (inactive) and the GI50 (UACC-62) was > 100 µM (inactive). For the same compound, the GI50 (SR) was > 100 µM (inactive), the GI50 (M19-MEL) was > 100 µM (inactive) and the GI50 (RXF 393) was > 100 µM (inactive). For the same compound, the GI50 (COLO 205) was > 100 µM (inactive), the GI50 (TK-10) was > 100 µM (inactive) and the GI50 (KM12) was > 100 µM (inactive). For the same compound, the GI50 (U-251) was > 100 µM (inactive), the GI50 (SK-MEL-2) was > 100 µM (inactive) and the GI50 (HCT-116) was > 100 µM (inactive). For the same compound, the GI50 (SK-MEL-28) was > 100 µM (inactive), the GI50 (EKVX) was > 100 µM (inactive) and the GI50 (XF498) was > 100 µM (inactive). For the same compound, the GI50 (A498) was > 100 µM (inactive), the GI50 (SNB-19) was > 100 µM (inactive) and the GI50 (IGROV-1) was > 100 µM (inactive). The GI50 (SNB-78) was > 100 µM (inactive), the GI50 (MOLT-4) was > 100 µM (inactive) and the GI50 (HOP-92) was > 100 µM (inactive). For the same compound, the GI50 (HL-60) was > 100 µM (inactive), the GI50 (SK-OV-3) was > 100 µM (inactive) and the GI50 (LOX IMVI) was > 100 µM (inactive). The GI50 (SK-MEL-5) was > 100 µM (inactive), the GI50 (OVCAR-8) was > 100 µM (inactive) and the GI50 (HOP-62) was > 100 µM (inactive). For the same compound, the GI50 (HT-29) was > 100 µM (inactive), the GI50 (HOP-18) was > 100 µM (inactive) and the GI50 (HCC 2998) was > 100 µM (inactive). For the same compound, the GI50 (NCI-H23) was > 100 µM (inactive), the GI50 (SF-295) was > 100 µM (inactive) and the GI50 (NCI-H460) was > 100 µM (inactive). For the same compound, the GI50 (UACC-257) was > 100 µM (inactive), the GI50 (SW-620) was > 100 µM (inactive) and the GI50 (A549) was > 100 µM (inactive). The GI50 (OVCAR-5) was > 100 µM (inactive), the GI50 (DLD-1) was > 100 µM (inactive) and the GI50 (NCI-H226) was > 100 µM (inactive). The GI50 (CCRF-CEM) was > 100 µM (inactive), the GI50 (OVCAR-3) was > 100 µM (inactive) and the GI50 (OVCAR-4) was > 100 µM (inactive). For the same compound, the GI50 (Malme-3M) was > 100 µM (inactive), the GI50 (SF-268) was > 100 µM (inactive) and the GI50 (SN12C) was > 100 µM (inactive). The GI50 (M14) was > 100 µM (inactive), the GI50 (NCI-H522) was > 100 µM (inactive) and the GI50 (RPMI-8226) was > 100 µM (inactive).
